The values that follow come from patent US20070219210A1, “Amidopyrazole Derivative” (Daiichi Pharmaceutical Co., LTD., priority 2003, published 2007).

What is called IC50 is the midpoint of a concentration-inhibition curve.

Read-outs that look alike come from different tables or passages of the source.

In test [1] the test system is collagen-induced platelet coagulation. The following applies: background art (Patent Document 1, Non-patent Document 5); read-out: IC50 value against collagen-induced platelet coagulation; cited from earlier work.
The target in test [2] is T1, Cyclooxygenase-2 (COX-2) (Homo sapiens, UniProt P35354).
T1 construct: purchased Cayman Chemical Company 560121
T1 sequence (P35354 18-604): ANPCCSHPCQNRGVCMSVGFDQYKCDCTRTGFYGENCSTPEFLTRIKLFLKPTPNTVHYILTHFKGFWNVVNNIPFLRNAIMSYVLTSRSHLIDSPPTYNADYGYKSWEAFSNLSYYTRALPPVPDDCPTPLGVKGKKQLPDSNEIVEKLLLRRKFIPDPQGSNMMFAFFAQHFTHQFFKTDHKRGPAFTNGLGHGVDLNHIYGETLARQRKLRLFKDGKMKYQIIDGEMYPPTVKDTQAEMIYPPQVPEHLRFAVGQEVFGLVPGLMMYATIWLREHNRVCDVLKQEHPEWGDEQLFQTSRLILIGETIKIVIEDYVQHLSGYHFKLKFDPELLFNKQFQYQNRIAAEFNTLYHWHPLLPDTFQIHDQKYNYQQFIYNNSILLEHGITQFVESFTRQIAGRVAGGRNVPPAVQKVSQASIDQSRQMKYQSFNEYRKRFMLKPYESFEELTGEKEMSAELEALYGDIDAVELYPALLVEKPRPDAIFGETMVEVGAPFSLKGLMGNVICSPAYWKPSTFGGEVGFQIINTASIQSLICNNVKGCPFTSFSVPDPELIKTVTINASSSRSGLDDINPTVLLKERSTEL
In words: COX Inhibitor Screening Assay Kit (Cayman), PGF2α by ELISA, COX-2. The test is classed as biochemical. The settings on record: compound at 50 μm; relative to PGF2α produced without compound (100%). How it is done:
(§1) Inhibitory activity against COX-1 and COX-2 of the compounds produced in the Examples was measured by using COX Inhibitor Screening Assay Kit (Catalog Nos. 560101 and 560121) purchased from Cayman Chemical Company.
(§2) Before starting the measurement, reaction buffer, heme, arachidonic acid, SnCl2, EIA buffer, washing buffer, prostaglandin (PG) screening EIA standard, PG screening acetylcholine esterase (AchE), tracer (chromogenic enzyme HRP conjugate), and PC screening EIA antiserum were prepared ready for use.
(§3) The reaction mixture containing the compound of the Examples (50 μM) and COX-1 or COX-2 was allowed to stand at 37° C. or 10 minutes, and after adding 10 μl of arachidonic acid, the solution was again allowed to stand at 37° C. for 2 minutes. After the reaction, the reaction was terminated by adding 50 μl of 1N-hydrochloric acid, and 100 μl solution of SnCl2 was added, and the reaction mixture was allowed to stand at room temperature for 5 minutes.
(§4) 50 μl of antiserum (rabbit anti-PGF2α antibody) was placed in the wells of 96 well plate that had been coated with mouse anti-rabbit IgG and 50 μl of the 2000-fold diluted PGF2α-containing liquid described above and 50 μl of AchE tracer were added to the well in this order, and the mixture was allowed to stand at room temperature for 18 hours. The wells were washed 5 times with the washing buffer to remove an excessive AchE tracer, and 200 μl of Ellman reagent was added. After leaving the plate in a dark room for 60 minutes, absorbance was measured at 405 nm.
(§5) A calibration curve was obtained by using the PG screening EIA standard, and the amount of PGF2α produced was determined from the absorption. Inhibitory rate at 50 μM of the compound of the Examples against COX-1 or COX-2 was calculated.
(§6) It is to be noted that the inhibitory rate was calculated in relation to the amount of the PGF2α produced by the reaction liquid free from the compounds of the Examples, which was taken 100%.

In test [3] the target is T2, Cyclooxygenase-1 (COX-1) (Ovis aries, UniProt P05979).
T2 construct: purchased Cayman Chemical Company 560101
T2 sequence (P05979 25-600): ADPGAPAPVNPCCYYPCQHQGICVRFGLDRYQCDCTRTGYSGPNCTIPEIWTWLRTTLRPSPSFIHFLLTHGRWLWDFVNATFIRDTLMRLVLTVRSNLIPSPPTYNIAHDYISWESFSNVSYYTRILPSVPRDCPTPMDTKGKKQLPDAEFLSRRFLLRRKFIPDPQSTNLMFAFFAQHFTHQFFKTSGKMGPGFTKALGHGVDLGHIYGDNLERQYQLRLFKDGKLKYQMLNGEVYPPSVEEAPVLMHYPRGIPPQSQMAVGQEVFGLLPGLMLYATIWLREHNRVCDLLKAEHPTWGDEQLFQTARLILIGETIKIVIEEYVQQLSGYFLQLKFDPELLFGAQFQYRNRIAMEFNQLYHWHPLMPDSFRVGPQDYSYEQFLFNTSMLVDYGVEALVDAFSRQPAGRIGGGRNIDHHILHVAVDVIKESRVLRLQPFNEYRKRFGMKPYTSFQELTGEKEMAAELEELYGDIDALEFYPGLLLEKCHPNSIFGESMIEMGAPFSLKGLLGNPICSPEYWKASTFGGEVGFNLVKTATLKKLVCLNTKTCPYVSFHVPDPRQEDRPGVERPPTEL
The test can be described thus: COX Inhibitor Screening Assay Kit (Cayman), PGF2α by ELISA, COX-1. It counts as biochemical. The settings on record: compound at 50 μm; relative to PGF2α produced without compound (100%). How it is done:
as §1, §2, §3, §4, §5, §6

Test [4] relates to collagen-induced platelet coagulation. In words: Inhibitory effect on collagen-induced platelet coagulation in platelet rich plasma. The settings on record: human platelet rich plasma, 37° C., coagulation induced with collagen; read-out: Inhibition of collagen-induced platelet coagulation, IC50. It counts as cell-based. How it is done: Human blood was collected by using 1/10 volume of 3.13% sodium citrate as an anticoagulant, and the blood was centrifuged at 180 g for 10 minutes to separate platelet rich plasma (PRP), which was the upper layer. After collecting the upper layer PRP, the remaining lower layer was centrifuged at 1600 g for 10 minutes, and platelet poor plasma (PPP) in the upper layer was collected. 1 μl solution of the compound of the Examples was added to 200 μl of the PRP, and after allowing the sample to stand at 37° C. for 2 minutes, 2 μl of collagen was added in order to induce platelet coagulation. Platelet coagulation rate was measured with PAM-12C (SSR Engineering).

`CS(=O)(=O)c1ccc(-c2cc(C#N)nn2-c2ccc(F)cc2)cc1` [Compound (A)]: in test [1], the concentration for half-maximal inhibition (IC50) is 5300 nM.

On to `CC(C)(C)NC(=O)c1cc(-c2ccc(CO)cn2)n(-c2cccnc2)n1` [Example 26, N-tert-Butyl-5-(5-hydroxymethyl-2-pyridyl)-1-(3-pyridyl)-1H-pyrazole-3-carboxamide], for which, in test [2], the “Inhibitory effect against COX-2 at 50 μm (% inhibition)” value is given as 8.2 % inhibition. The “Inhibitory effect against COX-1 at 50 μm (% inhibition)” value in test [3] is 5.5 % inhibition. Besides, the IC50 in test [4] was 65 nM.

Take `CC(C)(C)NC(=O)c1cc(-c2ccc(Cl)cn2)n(-c2cccnc2)n1` [Example 28, N-tert-Butyl-5-(5-chloro-2-pyridyl)-1-(3-pyridyl)-1H-pyrazole-3-carboxamide]: the “Inhibitory effect against COX-2 at 50 μm (% inhibition)” value in test [2] is recorded as 7.6 % inhibition. Moreover, the “Inhibitory effect against COX-1 at 50 μm (% inhibition)” value in test [3] worked out at 5.4 % inhibition. The IC50 in test [4] is 8.9 nM.

With `COCC(C)(C)NC(=O)c1cc(-c2ccccn2)n(-c2ccc(OC)nn2)n1` [Example 40, N-(2-Methoxy-1,1-dimethylethyl)-1-(6-methoxy-3-pyridazinyl)-5-(2-pyridyl)-1H-pyrazole-3-carboxamide], the “Inhibitory effect against COX-2 at 50 μm (% inhibition)” value in test [2] came out at 14.8 % inhibition. Further, the “Inhibitory effect against COX-1 at 50 μm (% inhibition)” value in test [3] was determined as 72 % inhibition. Further, in test [4], the 50% inhibitory concentration (IC50) is 65 nM.

For the molecule `COc1ccc(-n2nc(C(=O)NCC3CCCO3)cc2-c2ccccn2)cn1` (stereo not shown) [Example 44, N-(Tetrahydro-2-furanylmethyl)-1-(6-methoxy-3-pyridyl)-5-(2-pyridyl)-1H-pyrazole-3-carboxamide], the “Inhibitory effect against COX-2 at 50 μm (% inhibition)” value in test [2] is given as 3.6 % inhibition. In addition, in test [3], the “Inhibitory effect against COX-1 at 50 μm (% inhibition)” value turned out to be 4.3 % inhibition. In addition, the IC50 in test [4] came to 140 nM.

On to `COc1ccc(-n2nc(C(=O)NC3(C(N)=O)CCCC3)cc2-c2ccccn2)cn1` [Example 48, N-(1-Carbamoyl-1-cyclopentyl)-1-(6-methoxy-3-pyridyl)-5-(2-pyridyl)-1H-pyrazole-3-carboxamide], for which the “Inhibitory effect against COX-2 at 50 μm (% inhibition)” value in test [2] was found to be 8.7 % inhibition. The “Inhibitory effect against COX-1 at 50 μm (% inhibition)” value in test [3] was 3.6 % inhibition. In addition, the 50% inhibitory concentration (IC50) in test [4] came out at 190 nM.

As for `COc1ccc(-n2nc(C(=O)NC3CCCC3)cc2-c2ccccn2)nn1` [Example 56, N-Cyclopentyl-1-(6-methoxy-3-pyridazinyl)-5-(2-pyridyl)-1H-pyrazole-3-carboxamide], in test [2], the “Inhibitory effect against COX-2 at 50 μm (% inhibition)” value is given as −1.7 % inhibition. In test [3], the “Inhibitory effect against COX-1 at 50 μm (% inhibition)” value is −1.2 % inhibition. The IC50 in test [4] was 92 nM.

For `Cc1cnc(-c2cc(C(=O)NC(C)(C)C)nn2-c2cccnc2)cn1` [Example 65, N-tert-Butyl-5-(5-methyl-2-pyrazinyl)-1-(3-pyridyl)-1H-pyrazole-3-carboxamide], the “Inhibitory effect against COX-2 at 50 μm (% inhibition)” value in test [2] is −1.6 % inhibition. In addition, the “Inhibitory effect against COX-1 at 50 μm (% inhibition)” value in test [3] worked out at 11.6 % inhibition. In addition, the IC50 in test [4] came to 20 nM.
